{"source": "patent US20100075972A1", "about": "“AGENT FOR TREATMENT OF MULTIPLE SCLEROSIS” (Kowa Co., Ltd., priority 2007, published 2010)", "key": {"IL-6 mRNA": {"test_system": "IL-6 mRNA", "experiment": "IL-6 mRNA expression in the spinal cord of experimental autoimmune encephalomyelitis mice (real-time PCR)", "type": "in vivo", "conditions": "day 42, spinal cord of EAE mice of Example 1, corrected by ribosomal RNA", "description": "(§1) On day 42, the spinal cord was removed from the mice employed in Example 1, and total RNA was recovered by use of ISOGEN (Nippon Gene Co., Ltd.). For comparison, similarly, the spinal cord was extirpated from unsensitized normal mice, and was employed for the below-described quantitative determination. cDNA was synthesized from the thus-obtained total RNA by use of a reverse transcriptase, and the amount of mRNA of the following gene (F4/80, TNF-α, IL-1β, or IL-6) was quantitatively determined by means of an ABI PRISM 7900HT system (Applied Biosystems) through real-time PCR employing a TaqMan probe according to the protocol of Applied Biosystems. Meanwhile, the amount of ribosomal RNA was determined, and employed for correction."}, "F4/80 mRNA": {"test_system": "F4/80 mRNA", "experiment": "F4/80 mRNA expression in the spinal cord of experimental autoimmune encephalomyelitis mice (real-time PCR)", "type": "in vivo", "conditions": "day 42, spinal cord of EAE mice of Example 1, corrected by ribosomal RNA", "description": "as §1"}, "TNF-α mRNA": {"test_system": "TNF-α mRNA", "experiment": "TNF-α mRNA expression in the spinal cord of experimental autoimmune encephalomyelitis mice (real-time PCR)", "type": "in vivo", "conditions": "day 42, spinal cord of EAE mice of Example 1, corrected by ribosomal RNA", "description": "as §1"}, "IL-1β mRNA": {"test_system": "IL-1β mRNA", "experiment": "IL-1β mRNA expression in the spinal cord of experimental autoimmune encephalomyelitis mice (real-time PCR)", "type": "in vivo", "conditions": "day 42, spinal cord of EAE mice of Example 1, corrected by ribosomal RNA", "description": "as §1"}, "[1]": {"test_system": "interleukin-1β production", "conditions": "as disclosed in WO 99/25697; cited from earlier work"}, "[2]": {"test_system": "experimental autoimmune encephalomyelitis model", "experiment": "experimental autoimmune encephalomyelitis mouse model, symptom scores", "type": "in vivo, C57BL/6 mice", "experimental": "The experimental autoimmune encephalomyelitis model is established by immunizing a mouse with myelin protein (i.e., myelin-sheath-constituting protein), thereby causing T-cell-mediated autoimmune inflammation in the central nervous system.\nSeven-week-old female C57BL/6 mice (Charles River Laboratories Japan, Inc.) were employed. A sensitizing emulsion for causing the mice to develop experimental autoimmune encephalomyelitis was prepared by mixing myelin oligodendrocyte glycoprotein (MOG) 35-55 (Alexis Biochemical) with an equiamount of complete Freund's adjuvant H37Ra (DIFCO) so that the MOG concentration was 2 mg/mL, followed by homogenization under ice cooling by means of Handy Micro Homogenizer (product of Microtec Co., Ltd.). The thus-prepared emulsion (0.1 mL) was intradermally administered to each mouse at its tail base for initial sensitization. On the same day, pertussis toxin dissolved in saline (500 ng/0.3 mL) was intravenously injected to the tail. Two days after initial sensitization, in a manner similar to that described above, pertussis toxin (500 ng/0.3 mL) was intravenously injected for booster. Drug A was orally administered (30 mg/kg) twice a day in the morning (9:00 to 11:00) and in the evening (15:30 to 17:30) from the day following the initial sensitization to 42 days after sensitization.\nThe drugs were evaluated from the condition of experimentally created autoimmune encephalomyelitis according to the following ratings:\nscore 1: limp tail or abnormal gait;\nscore 2: limp tail and abnormal gait;\nscore 3: paralysis of one limb;\nscore 4: paralysis of two or more limbs; and\nIn FIGS. 1 and 2 and Table 1, the data for each group (10 mice) are represented by average value±standard error (non-parametric Dunnett's test)."}, "[3]": {"conditions": "oral administration of drug A 30 mg/kg twice a day"}}}
{"smiles": "CSc1ccc(-c2nn(Cc3ccccc3)c(=O)cc2-c2ccc(Cl)cc2)cc1", "note": "[Drug A, 2-Benzyl-5-(4-chlorophenyl)-6-[4-(methylthio)phenyl]-2H-pyridazin-3-one]", "values": [{"measurement": "expression of IL-6 mRNA in spinal cord", "setting": "IL-6 mRNA", "value": "found to be reduced"}, {"measurement": "amount of expression of mRNA of F4/80 in spinal cord", "setting": "F4/80 mRNA", "value": "found to be reduced"}, {"measurement": "expression of TNF-α mRNA in spinal cord", "setting": "TNF-α mRNA", "value": "found to be reduced"}, {"measurement": "expression of IL-1β mRNA in spinal cord", "setting": "IL-1β mRNA", "value": "found to be reduced"}, {"measurement": "interleukin-1β production inhibitory effect", "setting": "[1]", "value": "excellent"}, {"measurement": "Incidence rate, symptoms corresponding to score 2 or worse", "setting": "[2]; EAE mice, 10 per group, Drug A 30 mg/kg orally twice a day to day 42, IFN-β 10,000 IU/individual subcutaneously every other day", "value": "8/10"}, {"measurement": "death case during the experiment (score 5)", "setting": "[2]; EAE mice, 42 days after sensitization, Drug A 30 mg/kg orally twice a day, IFN-β 10,000 IU/individual s.c. every other day", "value": "no death case was observed"}, {"measurement": "Days required for onset, symptoms corresponding to score 2 or worse", "setting": "[2]; EAE mice, average ± standard error, Drug A 30 mg/kg orally twice a day, IFN-β 10,000 IU/individual subcutaneously every other day", "value": "22.4 ± 1.5", "unit": "days"}, {"measurement": "experimental autoimmune encephalomyelitis scores (FIG. 1)", "setting": "[2]; [3]", "value": "ameliorated to almost the same extent as in the case of IFN-β"}, {"measurement": "maximum score of experimental autoimmune encephalomyelitis symptoms (FIG. 2)", "setting": "[2]; [3]", "value": "tended to be reduced"}, {"measurement": "onset of symptoms corresponding to score 2 or worse (in words)", "setting": "[2]; [3]", "value": "tended to be delayed"}]}
